Laboratory results reported in publication PMC12332667, “Role of Structural Modifications in Peptidomimetic Compounds as Potential Antimicrobial Agents against Staphylococcus aureus and Streptococcus pyogenes: Balancing Bioavailability, Safety, and Antimicrobial Activity” (ACS Omega, 2025).
Converted amounts (≈) assume the structure as drawn.

Columns and labels:
[1] = system: human dermal fibroblast cell line (46BR.1N); assay: XTT cell proliferation assay, fibroblasts; type: cell-based; settings: XTT, 48 and 72 h, 0.01–150 μg/mL
Protocol: (§1) In our study, we used two distinct cell types: immortalized human HaCaT keratinocytes (DKFZ, Heidelberg, Germany) and a human dermal fibroblast cell line (46BR.1N). […] Cultures were maintained in a humidified atmosphere with 5% CO2 at 37 °C in 25 cm^2 culture flasks with the medium replenished every 2 days. The condition of the cells was monitored using optical microscopy. […] After 24 h of incubation, the medium was replaced with serum-free HG-DMEM containing appropriate concentrations of peptidomimetics. All solutions used in the experiments were prepared with double-distilled water or with the addition of ethanol under sterile conditions to ensure compatibility with the conditions of the bacteriological assay. For 72 h of incubation, half of the medium was replaced with fresh medium after 48 h, and cells were stimulated with peptides for a second time. The XTT cell proliferation assay was then performed according to the manufacturer’s instructions (Roche, Switzerland). Cells were treated with the peptides for either 48 or 72 h, followed by the addition of XTT reagent, and the plates were then incubated at 37 °C in a 5% CO2 environment for 4 h. Plate readings were taken using a standard plate reader at a wavelength of 490 nm (OD = 490 nm). […] Statistical significance was determined with a Mann–Whitney U test with statistical significance p ≤ 0.05. Analysis was performed with Statistica software, and graphs were prepared in GraphPad Prism.

[2] = system: S. schleiferi c.i.; assay: MIC/MBC broth microdilution, S. schleiferi; type: cell-based, Staphylococcus schleiferi
Protocol: (§2) S. aureus (ATCC 29213),S. pyogenes (ATCC 19615),Streptococcus agalactiae (ATCC 27956),Escherichia coli (ATCC 25922),Proteus vulgaris (ATCC 6896),K. pneumoniae (ATCC 700603) andP. aeruginosa (ATCC 10145) reference strains, as well asStaphylococcus cohnii, Enterococcus faecalis, Staphylococcus schleiferi, Staphylococcus intermedius and Streptococcus mutans clinical isolates, were used to test the antibacterial activity of the peptidomimetics. Bacteria were aerobically cultured for 18 h at 37 °C in plates with sterilized brain heart infusion (BHI) broth (Sigma-Aldrich, USA) media mixed with bacteriological agar (Sigma-Aldrich, USA) using the streak plate method. After 18 h, BHI broth was inoculated to 0.5 on the McFarland scale and diluted to approximately 10^5 CFU/mL. To achieve a final stock concentration of 1024 μg/mL, the peptidomimetics were dissolved in sterile water, and 5–10% of absolute ethanol or dimethyl sulfoxide (DMSO) was added. The antibacterial activities were determined by using the standard broth microdilution method of the National Committee for Clinical Laboratory Standards. The process involved adding serially diluted peptidomimetics to consecutive wells of a 96-well microtiter plate (Brand, Germany) holding media with microorganisms. The inoculated plates treated with peptides were then placed in an incubator at 37 °C for 18 h. The MIC value was determined as the lowest concentration of peptidomimetic at which there was no obvious growth (equal or more than 90% of the untreated sample). […] The lowest concentration yielding growth in no more than 3 colonies, corresponding to at least a 99.9% kill rate, was taken as MBC. Each biological replicate included control wells with the addition of water, DMSO, and ethanol as respective solvent controls. All experiments were conducted with consistent adherence to growth and sterility controls and were performed at least in technical triplicate with three biological repeats.

[3] = system: immortalized human HaCaT keratinocytes; assay: XTT cell proliferation assay, keratinocytes; type: cell-based; settings: XTT, 48 and 72 h, 0.01–150 μg/mL
Protocol: as §1

[4] = system: immortalized human keratinocytes (HaCaT); assay: LDH cytotoxicity test, keratinocytes; type: cell-based; settings: 48 h, 50-150 μg/mL
Protocol: (§3) In our study, we used two distinct cell types: immortalized human HaCaT keratinocytes (DKFZ, Heidelberg, Germany) and a human dermal fibroblast cell line (46BR.1N). […] Cultures were maintained in a humidified atmosphere with 5% CO2 at 37 °C in 25 cm^2 culture flasks with the medium replenished every 2 days. The condition of the cells was monitored using optical microscopy.
(§4) Cell death in immortalized human keratinocytes (HaCaT) and fibroblasts (46BR.1N) was measured by quantifying the lactate dehydrogenase (LDH) activity using a commercial kit (Roche, Switzerland). Cells were seeded in 96-well plates at a density of 5000 cells per well in DMEM high glucose medium supplemented with 10% FBS. After 24 h of incubation, the medium was replaced with serum-free medium containing various concentrations of peptidomimetics (50, 100, and 150 μg/mL). After 48 h, supernatants were collected for LDH analysis. Plate readings were taken spectrophotometrically using a 450 nm wavelength. Cell death measurements were normalized to an untreated control (0%), with 1% Triton X-100 detergent used as a positive control to induce maximum LDH release, indicating maximal cytotoxicity. Statistical significance was determined with a Mann–Whitney U test with a statistical significance p ≤ 0.05. Analysis was performed with Statistica software (Krakow, Poland) and graphs were prepared in GraphPad Prism (Boston, USA).

[5] = system: E. faecalis c.i.; assay: MIC/MBC broth microdilution, E. faecalis; type: cell-based, Enterococcus faecalis
Protocol: as §2

[6] = Hydrophobicity by reverse-phase chromatography; type: physicochemical; settings: acetonitrile content in the mobile phase at the retention time
Excerpt: Reverse-phase chromatography was employed to assess the hydrophobicity characteristics of the peptidomimetics. Hydrophobicity was quantified by determining the acetonitrile content in the mobile phase at the retention time of a peptidyl derivative (Table S2). The least hydrophobic compound (40% acetonitrile) was A-198, which aligns with the calculations of hydrophobicity by SwissADME and pkCSM (Table ). Next in the hydrophobicity sequence were A-197, A-220, A-219, A-174, and A-221, eluting with 42.5-43.9% of acetonitrile. Then there were followed by […], and A-179, with the acetonitrile percentage of 44.8-49.8. The compounds A-176, A-20, A-152, A-134, and A-210 needed over 50% of acetonitrile to be eluted from the column.

[7] = system: P. vulgaris ATCC 6896; assay: MIC/MBC broth microdilution, P. vulgaris; type: cell-based, Proteus vulgaris
Protocol: as §2

[8] = system: S. agalactiae ATCC 27956; assay: MIC/MBC broth microdilution, S. agalactiae; type: cell-based, Streptococcus agalactiae; settings: S. agalactiae
Protocol: as §2

[9] = system: P. aeruginosa ATCC 10145; assay: MIC/MBC broth microdilution, P. aeruginosa; type: cell-based
Protocol: as §2

[10] = system: K. pneumoniae ATCC 700603; assay: MIC/MBC broth microdilution, K. pneumoniae; type: cell-based
Protocol: as §2

[11] = system: S. aureus ATCC 43300; assay: MIC/MBC broth microdilution, S. aureus; type: cell-based, Staphylococcus aureus; settings: S. aureus
[12] = system: fibroblasts (46BR.1N); assay: LDH cytotoxicity test, fibroblasts; type: cell-based; settings: 48 h, 50-150 μg/mL
Protocol: as §3, §4

[13] = system: S. pyogenes ATCC 19615; assay: MIC/MBC broth microdilution, S. pyogenes; type: cell-based, Streptococcus pyogenes; settings: S. pyogenes
Protocol: as §2

[14] = system: S. cohnii c.i.; assay: MIC/MBC broth microdilution, S. cohnii; type: cell-based, Staphylococcus cohnii
Protocol: as §2

[15] = system: E. coli ATCC 25922; assay: MIC/MBC broth microdilution, E. coli; type: cell-based, Escherichia coli
Protocol: as §2

[16] = system: S. mutans c.i.; assay: MIC/MBC broth microdilution, S. mutans; type: cell-based, Streptococcus mutans
Protocol: as §2

CC(C)[C@@H](CNC(=O)/C=C/c1ccccc1)NC(=O)[C@H](Cc1c[nH]cn1)NC(=O)[C@H](CCCCN)NC(=O)OCc1ccccc1 [Compound A-174]
effect on proliferation, in words [1]: did not exert any negative impact
MIC ([2]; H2O): > 512 mg/L
MIC ([2]; water additive DMSO): > 512 mg/L
MBC ([2]; water additive EtOH): 512 mg/L (≈ 810 µM)
MIC ([2]; water additive EtOH): 512 mg/L (≈ 810 µM)
effect on proliferation, in words [3]: did not exert any negative impact
cytotoxicity (LDH), in words [4]: no cytotoxicity
MIC ([5]; H2O): > 512 mg/L
MIC ([5]; water additive DMSO): > 512 mg/L
MIC ([5]; water additive EtOH): > 512 mg/L
% AcCN (acetonitrile required for elution from the column) [6]: 42.9%
MIC ([7]; H2O): > 512 mg/L
MIC ([7]; water additive DMSO): > 512 mg/L
MBC ([7]; water additive EtOH): > 512 mg/L
MIC ([7]; water additive EtOH): 512 mg/L (≈ 810 µM)
MBC ([8]; H2O): 512 mg/L (≈ 810 µM)
MIC ([8]; H2O): 512 mg/L (≈ 810 µM)
MBC ([8]; water additive DMSO): 512 mg/L (≈ 810 µM)
MIC ([8]; water additive DMSO): 512 mg/L (≈ 810 µM)
MBC ([8]; water additive EtOH): 512 mg/L (≈ 810 µM)
MIC ([8]; water additive EtOH): 256 mg/L (≈ 405 µM)
MIC ([9]; H2O): > 512 mg/L
MIC ([9]; water additive DMSO): > 512 mg/L
MBC ([9]; water additive EtOH): > 512 mg/L
MIC ([9]; water additive EtOH): 512 mg/L (≈ 810 µM)
MIC ([10]; H2O): > 512 mg/L
MIC ([10]; water additive DMSO): > 512 mg/L
MIC ([10]; water additive EtOH): > 512 mg/L
MBC ([11]; H2O): 512 mg/L (≈ 810 µM)
MIC ([11]; H2O): 256 mg/L (≈ 405 µM)
MBC ([11]; water additive DMSO): 512 mg/L (≈ 810 µM)
MIC ([11]; water additive DMSO): 512 mg/L (≈ 810 µM)
MBC ([11]; water additive EtOH): 512 mg/L (≈ 810 µM)
MIC ([11]; water additive EtOH): 512 mg/L (≈ 810 µM)
cytotoxicity (LDH), in words [12]: no cytotoxicity
MBC ([13]; H2O): 256 mg/L (≈ 405 µM)
MBC ([13]; water additive DMSO): 256 mg/L (≈ 405 µM)
MBC ([13]; water additive EtOH): 256 mg/L (≈ 405 µM)
MBC ([14]; H2O): 256 mg/L (≈ 405 µM)
MIC ([14]; H2O): 256 mg/L (≈ 405 µM)
MBC ([14]; water additive DMSO): 256 mg/L (≈ 405 µM)
MBC ([14]; water additive EtOH): 256 mg/L (≈ 405 µM)
MIC ([15]; H2O): > 512 mg/L
MIC ([15]; water additive DMSO): > 512 mg/L
MIC ([15]; water additive EtOH): > 512 mg/L
MIC ([16]; H2O): > 512 mg/L
MIC ([16]; water additive DMSO): > 512 mg/L
MIC ([16]; water additive EtOH): > 512 mg/L
